Laboratory results reported in patent US20230372382A1, “USE OF ADENOSINE DIPHOSPHATE RIBOSE FOR ADJUVANT THERAPY WITH RADIATION AND/OR ANTI-CANCER TREATMENT” (PearlsInMires Co., Ltd., priority 2021, published 2023).

Columns and labels:
OVCAR-3 cells = assay: Cancer cell death verification (MTT cell viability); type: cell-based; settings: OVCAR-3, 32 μM ADP-ribose, 24 hours
Description: 3×10^3 SNU-1 or OVCAR-3 cells were cultured in a 96-well plate for 24 hours under conditions of 37° C. and 5% CO2, treated with ADP-ribose at concentrations of 32 μM, respectively, and cultured again for 24 hours under conditions of 37° C. and 5% CO2. Then, 10 μl of 3-(4,5-dimethylthiazol-2-yl)-2,5-diphenyltetrazolium bromide reagent was added to each well and reacted for 1 hour. After the reaction was completed, the reagent was removed, 200 μl of dimethyl sulfoxide was added to each well, and the absorbance was measured to confirm cell viability.

[1] = tested on: Colon cancer (HCT116) cells; assay: Cell death by combination treatment with anti-cancer drug (MTT); type: cell-based; settings: Homo sapiens, HCT-116; HCT116, ADP-ribose 1.6 μM/100 μl in combination with 5-FU 10 μM, 24 hours, P<0.001
Description: 3×10^3 Brain cancer (U-87MG), lung cancer (H1975), pancreatic cancer (Aspc-1), liver cancer (Hep G2), breast cancer (MDA-MB-231), and colon cancer (HCT116) cells were cultured in a 96-well plate for 24 hours under conditions of 37° C. and 5% Ca2, respectively. […] After the treatment was terminated, the cells were cultured for 24 hours under conditions of 37° C. and 5% CO2 again, 10 μl of 3-(4,5-dimethylthiazol-2-yl)-2,5-diphenyltetrazolium bromide reagent was added to each well and reacted for 1 hour. After the reaction was completed, the reagent was removed, 200 μl of dimethyl sulfoxide was added to each well, and the absorbance was measured to compare the degree of cell death.
3×10^3 Colon cancer (HCT116) cells were cultured in a 96-well plate for 24 hours under conditions of 37° C. and 5% CO2, treated with ADP-ribose at a concentration of 1.6 μM/100 μl and 5-fluorouracil (5-FU) at 10 μM, individually or in combination, and cultured for 24 hours under conditions of 37° C. and 5% CO2 again. Then, 10 μl of 3-(4,5-dimethylthiazol-2-yl)-2,5-diphenyltetrazolium bromide reagent was added to each well and reacted for 1 hour. After the reaction was completed, the reagent was removed, 200 μl of dimethyl sulfoxide was added to each well, and the absorbance was measured to confirm cell viability.

[2] = tested on: human colon fibroblast (CCD-18Co); assay: Toxicity in normal cells (MTT assay); type: cell-based; settings: ADP-ribose 25, 50, 100 ul, 24, 48 and 72 hours
Description: (§1) As normal cells, human colon fibroblast (CCD-18Co) and human dermal papilla cell (HDPC) cells were used. […] Then, the cells were divided into a total of 4 groups: ADP-ribose untreated group (Untreated), and treated groups (treated with increased concentrations of 25, 50, 100 ul). Cell viability was compared by MTT assay after 24, 48, and 72 hours of drug treatment.

[3] = tested on: human dermal papilla cell (HDPC); assay: Toxicity in normal cells (MTT assay); type: cell-based; settings: ADP-ribose 25, 50, 100 ul, 24, 48 and 72 hours
Description: as §1

Caki-1 cells = assay: Cell death by combination treatment of ADP-ribose and radiation (MTT); type: cell-based; settings: Caki-1, 16 μM ADP-ribose in combination with 2 Gy radiation, 24 hours, P<0.001; 2 Gy alone about 94.7%
Description: 3×10^3 Caki-1 cells were cultured in a 96-well plate for 24 hours under conditions of 37° C. and 5% CO2, treated with 16 μM of ADP-ribose and 2 or 5 Gy dose of radiation individually or in combination, and cultured for 24 hours under conditions of 37° C. and 5% CO2 again. Then, 10 μl of 3-(4,5-dimethylthiazol-2-yl)-2,5-diphenyltetrazolium bromide reagent was added to each well and reacted for 1 hour. After the reaction was completed, the reagent was removed, 200 μl of dimethyl sulfoxide was added to each well, and the absorbance was measured to confirm cell viability.

MDA-MB-231 cells = assay: Change over time in intracellular ADP-ribose, radiation versus ADP-ribose treatment (ELISA); type: cell-based; settings: MDA-MB-231, 16 μM ADP-ribose, even after 24 hours; after radiation back to untreated level from 16 hours
Description: Brain cancer (U-87MG), kidney cancer (Caki-1), pancreatic cancer (AsPC-1), or breast cancer (MDA-MB-231) cells were cultured in a 6-well plate, respectively, and the cells were divided into the untreated group, the radiation-treated group, and the ADP-ribose-treated group. Irradiation was performed using an X-Rad 320 irradiator (Precision X-ray, North Branford, CT, USA), and cancer cells were treated with a total of 1, 2, and 5 Gy at a dose rate of 300 kVp and 150 cGy/min using an X-ray beam filter composed of 12.5 mA and 2.0 mm Al, respectively. Before treatment and at 4, 8, 16, and 24 hours after treatment, the medium was removed, the cells were washed with phosphate-buffered saline, and then RIPA buffer was added and the products were left on ice for 20 minutes. After scraping the cells, the cells were put in a centrifuge tube and centrifuged for 10 minutes at 10,000 g and 4° C. The supernatant was obtained, and 1% SDS was added, and then the reaction product was boiled at 100° C. for 5 minutes and cooled on ice. The supernatant was centrifuged again at 10,000 g and 4° C. for 10 minutes to obtain the final supernatant, and ADP-ribose was quantitatively analyzed using an ELISA analysis kit (Cell Biolabs, Inc., San Diego, CA, USA). […]

[4] = tested on: Liver cancer (Hep G2) cells; assay: Xenograft model, combination with anti-cancer drug, tumor volume; type: in vivo, BALB/c nude mice
Description: Brain (U-87MG), lung (H1975), pancreatic (AsPC-1), or liver (Hep G2) cells (1×10^7 cells) were inoculated into 5-week-old BALB/c nude mice on the back flank, respectively. Then, when tumors were grown to a volume of approximately 150 mm^3, the mice were divided into the control group (control), an anti-cancer drug alone treatment group, and a combination treatment group. […] The tumor size was measured every 6 days using a digital caliper, and the results of changes in tumor volume were compared by the group.
Liver cancer (Hep G2) cells (1×10^7) were inoculated into 5-week-old BALB/c nude mice on the back flank, and the mice were divided into three groups: the control group (Control), single oral administration of 10 mg/kg of sorafenib, and combination administration of sorafenib+10 mg/kg of ADP-ribose. When the tumors were grown to a volume of approximately 150 mm^3, sorafenib was administered orally 5 times a week, and ADP-ribose at 10 mg/kg was injected subcutaneously 3 times a week. The tumor size was measured using a digital caliper, and the results of changes in tumor volume were compared by the group.

Hep G2 cells = assay: ADP-ribose quantitative analysis (ELISA) in cancer cells; type: cell-based; settings: 8 μM ADP-ribose, 24 hours, P<0.001
Description: After culturing, the culture medium was removed, the cells were washed with phosphate-buffered saline, and then RIPA buffer was added and the cells were left on ice for 20 minutes. After scraping the cells, the cells were put in a centrifuge tube and centrifuged for 10 minutes at 10,000 g and 4° C. The supernatant was obtained, and 1% SDS was added, and then the reaction product was boiled at 100° C. for 5 minutes and cooled on ice. The supernatant was centrifuged again at 10,000 g and 4° C. for 10 minutes to obtain the final supernatant, and ADP-ribose was quantitatively analyzed and compared using an ELISA analysis kit (Cell Biolabs, Inc., San Diego, CA, USA).
5×10^5 Hep G2 cells were divided into the untreated group and 8 μM ADP-ribose-treated group and cultured in Eagle's Minimum Essential Medium supplemented with 10% fetal calf serum+100 units/ml penicillin+100 μg/ml streptomycin under conditions of 37° C. and 5% CO2 for 24 hours. The medium of the cultured cells was removed, and the supernatant prepared by treatment with RIPA buffer and 1% sodium dodecyl sulfate (SDS) was used for ELISA analysis to detect and analyze ADP-ribose.

[5] = tested on: Kidney cancer (Caki-1) cells; assay: Xenograft model, intravenous ADP-ribose, tumor volume; type: in vivo, BALB/c nude mice; settings: Caki-1 xenograft, 3 times a week, control about 2074.9
Description: Pancreatic cancer (AsPC-1) or kidney cancer (Caki-1) cells (1×10^7 cells) were inoculated into 5-week-old BALB/c nude mice on the back flank, and the mice were grown up to approximately 150 mm^3 of the tumor volume. Then, three concentrations of ADP-ribose were administered subcutaneously, intravenously, and orally 3 times a week. The tumor size was measured every 6 days using a digital caliper, and the changes in tumor volume were compared for each group.
Kidney cancer (Caki-1) cells (1×10^7) were inoculated into 5-week-old BALB/c nude mice on the back flank, and the mice were divided into 4 groups: the control group (Control) and groups injected intravenously with 2, 10, and 20 mg/kg of ADP-ribose. When the tumors were grown to a volume of approximately 150 mm^3, each concentration of ADP-ribose was […] injected 3 times a week. The tumor size was measured using a digital caliper, and the results of changes in tumor volume were compared by the group.

[6] = ADP-ribose 10 mg/kg s.c. in combination with sorafenib 10 mg/kg, P<0.001

Nc1ncnc2c1ncn2[C@@H]1O[C@H](COP(=O)(O)OP(=O)(O)OC[C@H]2O[C@@H](O)C(O)C2O)C(O)C1O (stereo partly shown) [ADP-ribose, adenosine diphosphate ribose]
cell death compared to the control group (OVCAR-3 cells): killed significantly
viability at 1.6 µM [1]: ~12%
toxicity to normal cells (cell viability, MTT assay) [2]: no toxicity was observed
toxicity to normal cells (cell viability, MTT assay) [3]: no toxicity was observed
survival rate of cancer cells (Caki-1 cells): about 22.7%
amount of ADP-ribose in the cells over time compared to the control group (MDA-MB-231 cells): maintained a significant (P<0.001) increase
reduction of tumor volume compared to the control group [4, 6]: about 76%
reduction of tumor volume compared to the group treated with sorafenib alone [4, 6]: about 70%
final tumor volume ([4]; ADP-ribose 10 mg/kg subcutaneous 3 times a week in combination with sorafenib 10 mg/kg, control about 2322.4): about 546 mm^3
amount of ADP-ribose in cells compared to the control group (Hep G2 cells): remarkably increased significantly
final tumor volume ([5]; 2 mg/kg intravenous): 706.7 mm^3
final tumor volume ([5]; 10 mg/kg intravenous): 331.7 mm^3
final tumor volume ([5]; 20 mg/kg intravenous): 227.2 mm^3
